Source: patent US20050282743A1, “Molecular interactions in cells” (Arbor Vita Corporation, priority 2001, published 2005)
Ends that are not written are not given here. Peptide text beside a SMILES is read from it. * marks the point of attachment. Biotin = O=C1N[C@H]2[C@H](CS[C@H]2CCCCC(=O)*)N1

How the values were obtained:
Test in all cases: G' assay (10 uM PL peptide), results of TABLE 7 and TABLE 12
Type in all cases: binding
[1] = biological target: T1, PDZ protein (GST-PDZ fusion) (Homo sapiens, UniProt O14908); conditions: PDZ TAX IP2, PDZ Domain 1
T1 construct: made in house; host or cells: E. coli (DH5alpha, BL21 or JM109)
T1 sequence (O14908 1-333): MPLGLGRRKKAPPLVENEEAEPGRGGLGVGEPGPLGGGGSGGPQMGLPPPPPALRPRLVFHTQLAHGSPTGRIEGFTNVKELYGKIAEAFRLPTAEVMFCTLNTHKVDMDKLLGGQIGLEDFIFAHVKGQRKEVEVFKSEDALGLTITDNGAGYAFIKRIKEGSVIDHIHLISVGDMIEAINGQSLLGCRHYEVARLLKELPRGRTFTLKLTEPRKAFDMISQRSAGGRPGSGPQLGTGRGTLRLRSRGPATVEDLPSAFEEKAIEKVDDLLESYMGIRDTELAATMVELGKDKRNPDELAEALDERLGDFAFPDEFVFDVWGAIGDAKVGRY
Procedure, shortened: (§1)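 Binding classes derive from A450 nm of bound biotin-tagged PL peptide. A score of 5 needs A450 above 4 in more than two repeats.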

[2] = biological target: T2, PDZ protein (GST-PDZ fusion) (Homo sapiens, UniProt O15085); conditions: PDZ KIAA0380, PDZ Domain 1
T2 construct: made in house; host or cells: E. coli (DH5alpha, BL21 or JM109)
Procedure, shortened: as §1

[3] = biological target: T3, PDZ protein (GST-PDZ fusion) (Homo sapiens, UniProt Q9NSN8); conditions: PDZ Syntrophin gamma-1, PDZ Domain 1
T3 construct: made in house; host or cells: E. coli (DH5alpha, BL21 or JM109)
T3 sequence (Q9NSN8 1-517): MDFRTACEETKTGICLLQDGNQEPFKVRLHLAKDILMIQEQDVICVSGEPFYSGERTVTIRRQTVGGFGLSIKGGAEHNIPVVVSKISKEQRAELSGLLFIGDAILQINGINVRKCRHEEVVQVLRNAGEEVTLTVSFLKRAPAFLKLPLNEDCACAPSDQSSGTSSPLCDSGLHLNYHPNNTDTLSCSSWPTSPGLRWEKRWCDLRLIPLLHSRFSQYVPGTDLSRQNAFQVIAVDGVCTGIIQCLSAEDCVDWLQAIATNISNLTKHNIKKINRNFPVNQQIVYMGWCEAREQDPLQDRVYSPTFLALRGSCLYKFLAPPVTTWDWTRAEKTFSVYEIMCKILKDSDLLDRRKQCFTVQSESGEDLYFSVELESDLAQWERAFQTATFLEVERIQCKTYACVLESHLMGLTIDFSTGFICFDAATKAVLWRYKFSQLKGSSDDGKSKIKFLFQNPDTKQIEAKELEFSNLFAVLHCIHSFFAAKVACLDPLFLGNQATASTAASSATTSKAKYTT
Procedure, shortened: as §1

T2 sequence (O15085 whole entry, the tested form may be a part): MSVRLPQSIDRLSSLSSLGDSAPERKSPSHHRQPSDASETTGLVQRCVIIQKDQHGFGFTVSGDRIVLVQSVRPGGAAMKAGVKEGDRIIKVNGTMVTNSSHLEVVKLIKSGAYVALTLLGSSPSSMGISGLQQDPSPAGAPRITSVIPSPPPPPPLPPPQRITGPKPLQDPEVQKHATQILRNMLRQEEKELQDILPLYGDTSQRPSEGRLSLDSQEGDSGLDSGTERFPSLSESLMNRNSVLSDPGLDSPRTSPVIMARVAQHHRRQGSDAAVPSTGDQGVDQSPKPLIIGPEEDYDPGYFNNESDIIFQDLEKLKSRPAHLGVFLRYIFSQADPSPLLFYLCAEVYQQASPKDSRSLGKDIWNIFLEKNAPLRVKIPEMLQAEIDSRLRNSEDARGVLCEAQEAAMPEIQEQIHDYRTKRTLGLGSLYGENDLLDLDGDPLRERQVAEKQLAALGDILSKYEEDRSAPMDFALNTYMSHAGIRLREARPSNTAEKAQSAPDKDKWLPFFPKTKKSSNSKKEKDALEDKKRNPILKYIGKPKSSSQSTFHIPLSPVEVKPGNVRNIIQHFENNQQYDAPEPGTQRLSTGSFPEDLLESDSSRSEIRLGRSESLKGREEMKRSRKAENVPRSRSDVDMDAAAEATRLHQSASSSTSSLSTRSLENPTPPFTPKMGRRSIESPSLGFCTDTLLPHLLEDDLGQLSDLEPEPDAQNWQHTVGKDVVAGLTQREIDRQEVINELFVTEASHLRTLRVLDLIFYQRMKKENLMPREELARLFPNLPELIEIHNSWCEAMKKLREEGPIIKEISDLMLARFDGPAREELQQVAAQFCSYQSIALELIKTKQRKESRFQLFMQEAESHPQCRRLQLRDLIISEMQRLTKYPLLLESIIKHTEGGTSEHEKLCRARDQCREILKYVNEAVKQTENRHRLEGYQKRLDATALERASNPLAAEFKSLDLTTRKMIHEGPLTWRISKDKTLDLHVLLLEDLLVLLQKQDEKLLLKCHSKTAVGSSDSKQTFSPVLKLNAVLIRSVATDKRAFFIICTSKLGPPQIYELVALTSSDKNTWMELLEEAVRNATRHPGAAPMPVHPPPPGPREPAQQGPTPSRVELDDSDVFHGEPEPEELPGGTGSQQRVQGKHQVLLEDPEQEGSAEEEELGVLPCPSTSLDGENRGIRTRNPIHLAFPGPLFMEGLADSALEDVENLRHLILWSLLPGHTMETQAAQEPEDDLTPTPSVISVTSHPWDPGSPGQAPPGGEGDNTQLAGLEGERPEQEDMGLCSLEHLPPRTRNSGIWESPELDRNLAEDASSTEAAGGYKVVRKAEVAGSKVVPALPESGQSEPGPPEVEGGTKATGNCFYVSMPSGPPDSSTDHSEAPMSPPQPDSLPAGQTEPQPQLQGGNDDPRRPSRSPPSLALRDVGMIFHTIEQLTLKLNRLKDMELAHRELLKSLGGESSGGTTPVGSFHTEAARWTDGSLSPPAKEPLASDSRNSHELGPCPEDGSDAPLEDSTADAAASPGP

Compound	Classification [3]	Classification [1]	Classification [2]
CKR5_HUMAN (ERASSVYTRSTGEQEISVGL)	–	1 (A450 nm 0-1)	–
ARHRVTSYTSSSVNVSSNL (Biotin-ARHRVTSYTSSSVNVSSNL) [IL-8RB]	–	–	1 (A450 nm 0-1)
RNIEEVYVGGKQVVPFSSSV (Biotin-RNIEEVYVGGKQVVPFSSSV) [Nedasin (s-form)]	–	–	1 (A450 nm 0-1)
CC(C)C[C@H](NC(=O)[C@H](C)NC(=O)[C@@H](NC(=O)[C@H](CCC(=O)O)NC(=O)[C@H](CCCNC(=N)N)NC(=O)[C@H](CCCNC(=N)N)NC(=O)CNC(=O)[C@H](CCC(N)=O)NC(=O)[C@H](CC(C)C)NC(=O)[C@H](CCCNC(=N)N)NC(=O)CNC(=O)CNC(=O)[C@H](CCCNC(=N)N)NC(=O)[C@H](C)NC(=O)[C@H](CO)NC(=O)[C@H](CCCNC(=N)N)NC(=O)CNC(=O)CNC(=O)[C@H](C)NC(=O)[C@H](C)NC(=O)CCCC[C@@H]1SC[C@@H]2NC(=O)N[C@@H]21)[C@@H](C)O)C(=O)O [HPV E6 33 (modified)] (Biotin-AAGGRSARGGRLQGRRETAL-OH; C-terminus assumed)	–	–	1 (A450 nm 0-1)
CC(C)C[C@H](NC(=O)[C@H](CCCNC(=N)N)NC(=O)CNC(=O)CNC(=O)[C@H](CCCNC(=N)N)NC(=O)[C@H](C)NC(=O)[C@@H]1CCCN1C(=O)[C@H](CCCNC(=N)N)NC(=O)CNC(=O)CNC(=O)[C@@H](NC(=O)[C@H](C)NC(=O)CCCC[C@@H]1SC[C@@H]2NC(=O)N[C@@H]21)C(C)C)C(=O)N[C@@H](CCC(N)=O)C(=O)NCC(=O)N[C@@H](CCCNC(=N)N)C(=O)N[C@@H](CCCNC(=N)N)C(=O)N[C@@H](CCC(N)=O)C(=O)N[C@H](C(=O)N[C@@H](CCC(N)=O)C(=O)N[C@H](C(=O)O)C(C)C)[C@@H](C)O [HPV E6 58 (modified)] (Biotin-AVGGRPARGGRLQGRRQTQV-OH; C-terminus assumed)	–	–	1 (A450 nm 0-1)
CC(C)C[C@H](NC(=O)[C@H](C)NC(=O)[C@H](CO)NC(=O)CNC(=O)[C@@H](NC(=O)CCCC[C@@H]1SC[C@@H]2NC(=O)N[C@@H]21)[C@@H](C)O)C(=O)N[C@@H](CCC(N)=O)C(=O)N[C@@H](C)C(=O)N[C@@H](Cc1c[nH]c2ccccc12)C(=O)N[C@@H](CCCNC(=N)N)C(=O)N[C@@H](Cc1c[nH]cn1)C(=O)N[C@H](C(=O)N[C@@H](CO)C(=O)N[C@@H](CCCNC(=N)N)C(=O)N[C@@H](CCC(N)=O)C(=O)N[C@@H](C)C(=O)N[C@H](C(=O)N[C@@H](CCC(=O)O)C(=O)N[C@@H](CO)C(=O)N[C@H](C(=O)N[C@H](C(=O)O)C(C)C)[C@@H](C)O)[C@@H](C)O)[C@@H](C)O [HPV E6 #66 (modified)] (Biotin-TGSALQAWRHTSRQATESTV-OH; C-terminus assumed)	1 (A450 nm 0-1)	2 (A450 nm 1-2)	–
CC[C@H](C)[C@H](NC(=O)[C@H](CCC(N)=O)NC(=O)[C@@H](NC(=O)[C@H](Cc1c[nH]cn1)NC(=O)[C@H](CCC(N)=O)NC(=O)[C@H](CC(=O)O)NC(=O)[C@H](CCC(=O)O)NC(=O)[C@H](CC(=O)O)NC(=O)[C@H](Cc1ccccc1)NC(=O)[C@@H]1CCCN1C(=O)[C@H](CCC(=O)O)NC(=O)[C@H](CC(N)=O)NC(=O)[C@H](CCC(=O)O)NC(=O)[C@@H]1CCCN1C(=O)[C@H](CC(=O)O)NC(=O)[C@H](CO)NC(=O)[C@H](CC(=O)O)NC(=O)CCCC[C@@H]1SC[C@@H]2NC(=O)N[C@@H]21)[C@@H](C)O)C(=O)N[C@H](C(=O)N[C@@H](CCCCN)C(=O)N[C@H](C(=O)O)C(C)C)[C@@H](C)O [PTEN]	1 (A450 nm 0-1)	–	–
CSCC[C@H](NC(=O)[C@H](C)NC(=O)[C@H](CCCNC(=N)N)NC(=O)CNC(=O)[C@@H](NC(=O)[C@H](Cc1c[nH]c2ccccc12)NC(=O)[C@H](CCCNC(=N)N)NC(=O)CNC(=O)CCCC[C@@H]1SC[C@@H]2NC(=O)N[C@@H]21)[C@@H](C)O)C(=O)N[C@@H](CO)C(=O)N[C@@H](C)C(=O)N[C@@H](Cc1c[nH]c2ccccc12)C(=O)N[C@@H](CCCCN)C(=O)N1CCC[C@H]1C(=O)N[C@H](C(=O)N[C@@H](CCCNC(=N)N)C(=O)N[C@@H](CCCNC(=N)N)C(=O)N[C@@H](CCC(=O)O)C(=O)N[C@H](C(=O)N[C@@H](CCC(=O)O)C(=O)N[C@H](C(=O)O)C(C)C)[C@@H](C)O)[C@@H](C)O [HPV E6 #35 (modified)] (Biotin-GRWTGRAMSAWKPTRRETEV-OH; C-terminus assumed)	4 (A450 nm 3-4)	4 (A450 nm 3-4)	3 (A450 nm 2-3)
CC[C@H](C)[C@H](NC(=O)[C@H](C)NC(=O)[C@H](CC(C)C)NC(=O)[C@H](Cc1c[nH]c2ccccc12)NC(=O)[C@H](Cc1c[nH]cn1)NC(=O)[C@H](CCC(N)=O)NC(=O)[C@H](CC(C)C)NC(=O)[C@H](CCC(N)=O)NC(=O)[C@H](Cc1ccccc1)NC(=O)[C@H](CCC(N)=O)NC(=O)[C@H](CCCNC(=N)N)NC(=O)[C@@H](NC(=O)[C@H](CC(=O)O)NC(=O)[C@H](CCCNC(=N)N)NC(=O)[C@H](CCC(N)=O)NC(=O)[C@H](C)NC(=O)[C@@H](NC(=O)[C@H](CC(C)C)NC(=O)[C@H](Cc1c[nH]cn1)NC(=O)[C@H](Cc1c[nH]cn1)NC(=O)CCCC[C@@H]1SC[C@@H]2NC(=O)N[C@@H]21)C(C)C)[C@@H](C)CC)C(=O)O [noradrenaline transporter] (Biotin-HHLVAQRDIRQFQLQHWLAI-OH; C-terminus assumed)	–	–	1 (A450 nm 0-1)
CC[C@H](C)[C@H](NC(=O)[C@H](CCC(N)=O)NC(=O)CCCC[C@@H]1SC[C@@H]2NC(=O)N[C@@H]21)C(=O)N[C@@H](CO)C(=O)N1CCC[C@H]1C(=O)NCC(=O)NCC(=O)N[C@@H](CC(C)C)C(=O)N[C@@H](CCC(=O)O)C(=O)N1CCC[C@H]1C(=O)N1CCC[C@H]1C(=O)N[C@@H](CO)C(=O)N[C@@H](CCC(=O)O)C(=O)N[C@@H](CCCCN)C(=O)N[C@@H](Cc1c[nH]cn1)C(=O)N[C@@H](Cc1ccccc1)C(=O)N[C@@H](CCCNC(=N)N)C(=O)N[C@@H](CCC(=O)O)C(=O)N[C@H](C(=O)N[C@@H](CCC(=O)O)C(=O)N[C@H](C(=O)O)C(C)C)[C@@H](C)O [Tax]	5 (A450 nm of 4 more than 2× repeated)	2 (A450 nm 1-2)	–

Continued, in another order:

Classification [3]	Compound	Classification [1]	Classification [2]
1 (A450 nm 0-1)	PYSELNYETSHYPASPDSWV (Biotin-PYSELNYETSHYPASPDSWV) [catenin - delta 2]	–	–
4 (A450 nm 3-4)	TQGFPGPATWRRISSLESEV	4 (A450 nm 3-4)	1 (A450 nm 0-1)
2 (A450 nm 1-2)	A2AA_HUMAN (modified) (Biotin-HDFRRAFKKILARGDRKRIV; not fully specified)	–	–
1 (A450 nm 0-1)	CC(C)C[C@H](NC(=O)[C@H](CC(=O)O)NC(=O)[C@H](CO)NC(=O)[C@H](CCC(=O)O)NC(=O)CNC(=O)[C@H](Cc1ccc(O)cc1)NC(=O)[C@H](CC(C)C)NC(=O)[C@H](C)NC(=O)[C@H](CO)NC(=O)[C@H](CO)NC(=O)[C@H](Cc1ccccc1)NC(=O)[C@H](C)NC(=O)[C@H](C)NC(=O)[C@H](Cc1ccc(O)cc1)NC(=O)[C@H](CC(=O)O)NC(=O)[C@H](CC(C)C)NC(=O)[C@H](C)NC(=O)CNC(=O)[C@@H]1CCCN1C(=O)[C@@H](NC(=O)CCCC[C@@H]1SC[C@@H]2NC(=O)N[C@@H]21)C(C)C)C(=O)O [a-actinin 2] (Biotin-VPGALDYAAFSSALYGESDL-OH; C-terminus assumed)	5 (A450 nm of 4 more than 2× repeated)	1 (A450 nm 0-1)
1 (A450 nm 0-1)	CC[C@H](C)[C@H](NC(=O)[C@H](Cc1c[nH]cn1)NC(=O)[C@H](C)NC(=O)[C@H](C)NC(=O)[C@H](CO)NC(=O)[C@@H]1CCCN1C(=O)[C@H](CCCNC(=N)N)NC(=O)[C@H](CC(=O)O)NC(=O)[C@H](CCCCN)NC(=O)[C@@H]1CCCN1C(=O)[C@H](CC(=O)O)NC(=O)[C@H](CCC(=O)O)NC(=O)CCCC[C@@H]1SC[C@@H]2NC(=O)N[C@@H]21)C(=O)N[C@H](C(=O)N[C@@H](CCC(=O)O)C(=O)N[C@@H](C)C(=O)N[C@@H](CC(C)C)C(=O)N[C@@H](CCC(=O)O)C(=O)N[C@H](C(=O)N[C@@H](CC(=O)O)C(=O)N[C@H](C(=O)O)C(C)C)[C@@H](C)O)C(C)C [PDZ-binding kinase (PBK)] (Biotin-EDPKDRPSAAHIVEALETDV-OH; C-terminus assumed)	–	–
